According to US20190292179A1 (BRISTOL-MYERS SQUIBB COMPANY, priority 2016, published 2019):

Assays:
HIS-TGFβR2 WT = HIS-TGFβR2 WT (Homo sapiens, UniProt P37173); assay: HTRF probe-displacement assay with HIS-TGFβR2 WT; type: binding; settings: 1 nM HIS-TGFβR2 WT, labeled probe at Kd, 1 hour at room temperature
Protocol: (§1) The reaction is incubated for 1 hour at room temperature and the HTRF signal was measured on an Envision plate reader (Ex: 340 nm; Em: 520 nm/495 nm). Inhibition data were calculated by comparison to no enzyme control reactions for 100% inhibition and vehicle-only reactions for 0% inhibition. The final concentration of reagents in the assay are 1 nM HIS-TGFβR1 T204D or HIS-TGFβR2 WT, 0.2 nM anti-HIS detection antibody, labeled small molecule probe (at Kd) and 0.5% DMSO. Dose response curves were generated to determine the concentration required inhibiting 50% of kinase activity (IC50). Compounds were dissolved at 10 mM in dimethylsulfoxide (DMSO) and evaluated at eleven concentrations. IC50 values were derived by non-linear regression analysis.

HIS-TGFβR1 T204D = target: T1, HIS-TGFβR1 T204D (Homo sapiens, UniProt P36897, T204D); assay: HTRF probe-displacement assay with HIS-TGFβR1 T204D; type: binding; settings: 1 nM HIS-TGFβR1 T204D, labeled probe at Kd, 1 hour at room temperature
T1 sequence (P36897 34-503 T204D): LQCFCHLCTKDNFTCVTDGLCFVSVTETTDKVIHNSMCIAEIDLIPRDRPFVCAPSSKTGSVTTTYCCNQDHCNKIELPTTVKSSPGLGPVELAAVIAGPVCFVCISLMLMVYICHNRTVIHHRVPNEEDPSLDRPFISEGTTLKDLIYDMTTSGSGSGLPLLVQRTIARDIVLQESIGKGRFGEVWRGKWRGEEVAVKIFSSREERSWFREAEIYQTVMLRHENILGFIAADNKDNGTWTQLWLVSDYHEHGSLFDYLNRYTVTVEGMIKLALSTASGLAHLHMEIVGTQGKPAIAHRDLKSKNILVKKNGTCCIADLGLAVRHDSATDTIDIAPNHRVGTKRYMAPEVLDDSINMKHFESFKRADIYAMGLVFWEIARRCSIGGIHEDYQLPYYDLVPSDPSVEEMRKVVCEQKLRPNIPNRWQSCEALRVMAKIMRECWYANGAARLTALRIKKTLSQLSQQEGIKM
Protocol: as §1

Chain of HIS-TGFβR2 WT (P37173 23-567): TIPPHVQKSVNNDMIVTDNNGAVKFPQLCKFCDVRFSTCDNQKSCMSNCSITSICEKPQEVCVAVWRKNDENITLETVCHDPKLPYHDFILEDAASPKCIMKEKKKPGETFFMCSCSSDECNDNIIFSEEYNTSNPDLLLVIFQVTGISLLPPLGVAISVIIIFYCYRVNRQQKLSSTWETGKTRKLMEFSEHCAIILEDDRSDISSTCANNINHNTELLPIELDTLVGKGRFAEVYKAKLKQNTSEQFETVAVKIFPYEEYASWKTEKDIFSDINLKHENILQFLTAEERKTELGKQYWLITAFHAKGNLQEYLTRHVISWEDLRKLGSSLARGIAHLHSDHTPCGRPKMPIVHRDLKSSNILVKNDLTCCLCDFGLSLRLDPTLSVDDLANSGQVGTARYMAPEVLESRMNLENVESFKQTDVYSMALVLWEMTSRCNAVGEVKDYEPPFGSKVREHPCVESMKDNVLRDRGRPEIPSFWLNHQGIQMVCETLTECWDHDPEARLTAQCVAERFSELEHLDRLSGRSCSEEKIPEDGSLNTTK

Row | SMILES | IC50 (HIS-TGFβR2 WT) | IC50 (HIS-TGFβR1 T204D)
1 | Cc1cccc(-c2n[nH]c(C)c2-c2ccc3ncc(C(N)=O)n3c2)n1 [Example 64, 6-(5-methyl-3-(6-methylpyridin-2-yl)-1H-pyrazol-4-yl)imidazo[1,2-a]pyridine-3-carboxamide] | 0.012 µM | 0.001 µM
2 | Cc1cccc(-c2n[nH]c(C3CC3)c2-c2ccc3nccn3c2)n1 [Example 123, 6-(5-cyclopropyl-3-(6-methylpyridin-2-yl)-1H-pyrazol-4-yl)imidazo[1,2-a]pyridine] | 0.469 µM | 0.001 µM
3 | CCOC(=O)c1cnc2ccc(-c3c[nH]nc3-c3ccc(F)cc3)cn12 [Example 57, ethyl 6-(3-(4-fluorophenyl)-1H-pyrazol-4-yl)imidazo[1,2-a]pyridine-3-carboxylate] | 3.71 µM | 0.003 µM
4 | Cc1cc(-c2n[nH]cc2-c2ccc3nccn3c2)ccc1F [Example 48, 6-(3-(4-fluoro-3-methylphenyl)-1H-pyrazol-4-yl)imidazo[1,2-a]pyridine] | 4.12 µM | 0.002 µM
5 | NC(=O)c1cnc2ccc(-c3c[nH]nc3-c3cccc(C(F)F)n3)cn12 [Example 5, 6-(3-(6-(difluoromethyl)pyridin-2-yl)-1H-pyrazol-4-yl)imidazo[1,2-a]pyridine-3-carboxamide] | 0.193 µM | 
6 | Cc1cccc(-c2n[nH]cc2-c2ccc3ncc(C#N)n3n2)n1 [Example 20, 6-(3-(6-methylpyridin-2-yl)-1H-pyrazol-4-yl)imidazo[1,2-b]pyridazine-3-carbonitrile] | 1.45 µM | 0.001 µM
7 | CC(C)c1[nH]nc(-c2ccc(F)cc2)c1-c1ccc2ncc(C#N)n2c1 [Example 67, 6-(3-(4-fluorophenyl)-5-isopropyl-1H-pyrazol-4-yl)imidazo[1,2-a]pyridine-3-carbonitrile] | 11.1 µM | 0.004 µM
8 | N#Cc1cnc2ccc(-c3c[nH]nc3-c3cccc(C(F)F)n3)cn12 [Example 4, 6-(3-(6-(difluoromethyl)pyridin-2-yl)-1H-pyrazol-4-yl)imidazo[1,2-a]pyridine-3-carbonitrile] | 1.11 µM | 0.001 µM
9 | Cc1cccc(-c2nn(C)cc2-c2ccc3ncc(C(N)=O)n3c2)n1 [Example 24, 6-(1-methyl-3-(6-methylpyridin-2-yl)-1H-pyrazol-4-yl)imidazo[1,2-a]pyridine-3-carboxamide] | 0.627 µM | 0.001 µM
10 | Cc1cc(-c2n[nH]c(C(C)C)c2-c2ccc3ncc(C#N)n3c2)ccc1F [Example 78, 6-(3-(4-fluoro-3-methylphenyl)-5-isopropyl-1H-pyrazol-4-yl)imidazo[1,2-a]pyridine-3-carbonitrile] | 6.67 µM | 0.001 µM
11 | N#Cc1cnc2ccc(-c3c[nH]nc3-c3ccc(F)c(Cl)c3)cn12 [Example 41, 6-(3-(3-chloro-4-fluorophenyl)-1H-pyrazol-4-yl)imidazo[1,2-a]pyridine-3-carbonitrile] | 0.098 µM | 0.001 µM
12 | NC(=O)c1cnc2ccc(-c3c(-c4ccc(Cl)cc4)n[nH]c3C3CC3)cn12 [Example 97, 6-(3-(4-chlorophenyl)-5-cyclopropyl-1H-pyrazol-4-yl)imidazo[1,2-a]pyridine-3-carboxamide] | 6.36 µM | 0.001 µM
13 | Cc1cccc(-c2nn(C)c(C(C)C)c2-c2ccc3nccn3c2)n1 [Example 119, 6-(5-isopropyl-1-methyl-3-(6-methylpyridin-2-yl)-1H-pyrazol-4-yl)imidazo[1,2-a]pyridine] | 4.95 µM | 0.003 µM
14 | N#Cc1cnc2ccc(-c3c[nH]nc3-c3cccc(F)n3)cn12 [Example 6, 6-(3-(6-fluoropyridin-2-yl)-1H-pyrazol-4-yl)imidazo[1,2-a]pyridine-3-carbonitrile] | 0.259 µM | 
15 | Cc1cc(-c2n[nH]cc2-c2ccc3ncc(C(N)=O)n3c2)ccc1F [Example 50, 6-(3-(4-fluoro-3-methylphenyl)-1H-pyrazol-4-yl)imidazo[1,2-a]pyridine-3-carboxamide] | 0.368 µM | 
16 | NC(=O)c1cnc2ccc(-c3c(-c4ccc(F)cc4)n[nH]c3C3CC3)cn12 [Example 85, 6-(5-cyclopropyl-3-(4-fluorophenyl)-1H-pyrazol-4-yl)imidazo[1,2-a]pyridine-3-carboxamide] | 0.143 µM | 
17 | Clc1ccc(-c2n[nH]c(C3CC3)c2-c2ccc3nccn3c2)cc1 [Example 98, 6-(3-(4-chlorophenyl)-5-cyclopropyl-1H-pyrazol-4-yl)imidazo[1,2-a]pyridine] |  | 0.05 µM
18 | Cc1cccc(-c2c(-c3ccc4nccn4c3)c(C(C)C)nn2C)n1 [Example 120, 6-(3-isopropyl-1-methyl-5-(6-methylpyridin-2-yl)-1H-pyrazol-4-yl)imidazo[1,2-a]pyridine] |  | 0.115 µM

Row | SMILES | IC50 (HIS-TGFβR2 WT) | IC50 (HIS-TGFβR1 T204D)
19 | O=C(O)c1cnc2ccc(-c3c[nH]nc3-c3ccc(F)cc3)cn12 [Example 60, 6-(3-(4-fluorophenyl)-1H-pyrazol-4-yl)imidazo[1,2-a]pyridine-3-carboxylic acid] |  | 0.012 µM
20 | CC(C)(O)c1[nH]nc(-c2ccc(F)cc2)c1-c1ccc2nccn2c1 [Example 137, 2-(3-(4-fluorophenyl)-4-(imidazo[1,2-a]pyridin-6-yl)-1H-pyrazol-5-yl)propan-2-ol] |  | 0.153 µM
21 | O=C(Nc1cnc2ccc(-c3c[nH]nc3-c3ccc(F)cc3)cn12)C(F)(F)F [Example 16, 2,2,2-trifluoro-N-(6-(3-(4-fluorophenyl)-1H-pyrazol-4-yl)imidazo[1,2-a]pyridin-3-yl)acetamide] |  | 0.187 µM
22 | Cc1cccc(-c2n[nH]cc2-c2ccc3ncc(C(N)=O)n3n2)n1 [Example 21, 6-(3-(6-methylpyridin-2-yl)-1H-pyrazol-4-yl)imidazo[1,2-b]pyridazine-3-carboxamide] | 0.205 µM | 
23 | Cc1cc(-c2n[nH]c(C3CC3)c2-c2ccc3nccn3c2)ccc1F [Example 101, 6-(5-cyclopropyl-3-(4-fluoro-3-methylphenyl)-1H-pyrazol-4-yl)imidazo[1,2-a]pyridine] |  | 0.001 µM
24 | Cc1cccc(-c2n[nH]cc2-c2ccc3nccn3n2)n1 [Example 19, 6-(3-(6-methylpyridin-2-yl)-1H-pyrazol-4-yl)imidazo[1,2-b]pyridazine] | 0.277 µM | 
25 | CCOC(=O)c1[nH]nc(-c2ccc(F)cc2)c1-c1ccc2ncc(C#N)n2c1 [Example 128, ethyl 4-(3-cyanoimidazo[1,2-a]pyridin-6-yl)-3-(4-fluorophenyl)-1H-pyrazole-5-carboxylate] |  | 0.281 µM
26 | CC(C)c1[nH]nc(-c2ccc(F)cc2)c1-c1ccc2nccn2c1 [Example 69, 6-(3-(4-fluorophenyl)-5-isopropyl-1H-pyrazol-4-yl)imidazo [1,2-a]pyridine] |  | 0.007 µM
27 | Cc1cccc(-c2nn(C)cc2-c2ccc3ncc(C(C)(C)O)n3c2)n1 [Example 52] |  | 0.007 µM
28 | NC(=O)c1cnc2ccc(-c3cn(CC(F)F)nc3-c3ccc(F)c(Cl)c3)cn12 [Example 62, 6-(3-(3-chloro-4-fluorophenyl)-1-(2,2-difluoroethyl)-1H-pyrazol-4-yl)imidazo[1,2-a]pyridine-3-carboxamide] | 0.518 µM | 
29 | Cc1cccc(-c2nn(C)cc2-c2ccc3ncc(NC(C)(C)C)n3c2)n1 [Example 53, N-(tert-butyl)-6-(1-methyl-3-(6-methylpyridin-2-yl)-1H-pyrazol-4-yl)imidazo[1,2-a]pyridin-3-amine] |  | 0.03 µM
30 | Cc1cccc(-c2n[nH]cc2-c2ccc3[nH]ncc3c2)n1 [Example 18, 5-(3-(6-methylpyridin-2-yl)-1H-pyrazol-4-yl)-1H-indazole] | 0.752 µM | 
31 | Cc1nc(-c2nn(C)cc2-c2ccc3ncc(C(N)=O)n3c2)ccc1F [Example 12, 6-(3-(5-fluoro-6-methylpyridin-2-yl)-1-methyl-1H-pyrazol-4-yl)imidazo[1,2-a]pyridine-3-carboxamide] | 0.396 µM | 
32 | N#Cc1cnc2ccc(-c3c(-c4ccc(F)cc4)n[nH]c3C(=O)O)cn12 [Example 129] |  | 1.76 µM
33 | FC(F)(F)c1cccc(-c2n[nH]cc2-c2ccc3nccn3c2)n1 [Example 3, 6-(3-(6-(trifluoromethyl)pyridin-2-yl)-1H-pyrazol-4-yl)imidazo[1,2-a]pyridine] |  | 0.001 µM
34 | CCc1[nH]nc(-c2ccc(F)cc2)c1-c1ccc2ncc(C#N)n2c1 [Example 81, 6-(5-ethyl-3-(4-fluorophenyl)-1H-pyrazol-4-yl)imidazo[1,2-a]pyridine-3-carbonitrile] |  | 0.006 µM
35 | CCOC(=O)c1[nH]nc(-c2ccc(F)cc2)c1-c1ccc2nccn2c1 [Example 132, ethyl 3-(4-fluorophenyl)-4-(imidazo[1,2-a]pyridin-6-yl)-1H-pyrazole-5-carboxylate] |  | 0.758 µM
36 | Cn1nc(C(F)(F)F)c(-c2ccc3ncc(C(N)=O)n3c2)c1-c1ccc(F)cc1 [Example 109, 6-(5-(4-fluorophenyl)-1-methyl-3-(trifluoromethyl)-1H-pyrazol-4-yl)imidazo[1,2-a]pyridine-3-carboxamide] |  | 1.13 µM
